Experimental data taken from patent US8975417B2, “Pyrazolopyrrolidine derivatives and their use in the treatment of disease” (Novartis AG, priority 2013, dated 2015).
pIC50: −log10 of the molar value.

What was measured:
Settings in all cases: biochemical
His-Brd4(44-477) = His-Brd4(44-477) (Homo sapiens (Human), UniProt O60885); experiment: TR-FRET in-vitro binding assay for BRD4
Protocol: (§1) TR-FRET In-Vitro Binding Assays for BRD2, BRD3, and BRD4:
(§2) All assays were performed in 384-well microtiter plates. Each assay plate contained 8-point serial dilutions for 40 test compounds, plus 16 high- and 16 low controls. Liquid handling and incubation steps were done on an Innovadyne Nanodrop Express equipped with a robotic arm (Thermo CatX, Perkin Elmer/Caliper Twister II) and an incubator (Liconic STX40, Thermo Cytomat 2C450). The assay plates were prepared by addition of 50 nl per well of compound solution in 90% DMSO HummingBird nanodispenser (Zinsser Analytic). The assay was started by stepwise addition of 4.5 μL per well of bromo domain protein (50 mM HEPES, pH 7.5, 0.005% Tween20, 0.1% BSA, 50 mM NaCl, 45 nM His-Brd2(60-472) or 45 nM His-Brd3(20-477) or 45 nM His-Brd4(44-477) all proteins produced in-house) and 4.5 μL per well of peptide solution (50 mM HEPES, pH 7.5, 0.005% Tween20, 0.1% BSA, 50 mM NaCl, 60 nM acetyl-histone H4 (AcK 5, 8, 12, 16) (Biosyntan GmbH)). Reactions were incubated at 30° C. for 35 minutes. Subsequently 4.5 μL per well detection mix (50 mM HEPES, pH 7.5, 0.005% Tween20, 0.1% BSA, 50 mM NaCl, 3 nM Eu-labeled anti-His6 antibody, 21 nM streptavidin-allophycocyanin) were added. After minutes incubation at 30° C., plates were measured in a Perkin Elmer EnVision multilabel reader.
(§3) Test compounds were dissolved in DMSO (10 mM) and transferred into 1.4 mL flat bottom or V-shaped Matrix tubes carrying a unique 2D matrix. The stock solutions were stored at […] if not used immediately. For the test procedure the vials were defrosted and identified by a scanner whereby a working sheet was generated that guided the subsequent working steps. Compound dilutions were made in 96 well plates. This format enabled the assay of maximally […] at 8 concentrations (single points) including 4 reference compounds, if desired (known BET inhibitors from the prior art, for this and other assays of the type disclosed herein). The dilution protocol included the production of “pre-dilution plates”, “master plates” and “assay plates”.
(§4) Polypropylene 96-well plates were used as pre-dilution plates. […] All dilution steps were done on a HamiltonSTAR robot.
(§5) 30 μL of individual compound dilutions including standard compound and controls of the 4 “pre-dilution plates” were transferred into a 384-well “master plate” including the following concentrations 10000, […], 1000, 300, 100, 30, 10 and 3 μM, respectively in 90% of DMSO.
(§6) Identical “assay plates” were then prepared by pipetting 50 nL each of compound dilutions of the “master plates” into 384-well “assay plates” by means of a HummingBird 384-channel dispenser. These plates were used directly for the assay which was performed in a total volume of 13.55 μL.

His-Brd2(60-472) = His-Brd2(60-472) (Homo sapiens (Human), UniProt P25440); experiment: TR-FRET in-vitro binding assay for BRD2
Chain of His-Brd2(60-472) (P25440 60-472): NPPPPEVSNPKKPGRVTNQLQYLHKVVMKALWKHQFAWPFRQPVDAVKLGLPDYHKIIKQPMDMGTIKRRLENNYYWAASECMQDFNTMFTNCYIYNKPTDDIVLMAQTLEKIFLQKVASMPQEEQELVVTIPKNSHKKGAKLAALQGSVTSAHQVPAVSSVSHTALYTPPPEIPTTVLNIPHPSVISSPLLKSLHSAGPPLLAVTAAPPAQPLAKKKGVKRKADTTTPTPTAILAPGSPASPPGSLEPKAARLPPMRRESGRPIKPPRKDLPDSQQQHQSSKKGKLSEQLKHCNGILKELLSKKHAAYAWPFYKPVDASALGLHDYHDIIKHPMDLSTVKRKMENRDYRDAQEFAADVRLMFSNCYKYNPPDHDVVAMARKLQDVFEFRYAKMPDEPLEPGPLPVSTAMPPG
Protocol: as §1, §2, §3, §4, §5, §6

[1] = molecular target: His-CREBBP (1081-1197) bromodomain (Homo sapiens (Human), UniProt Q92793); experiment: AlphaScreen in-vitro binding assay for CREBBP
Chain of His-CREBBP (1081-1197) bromodomain (Q92793 1081-1197): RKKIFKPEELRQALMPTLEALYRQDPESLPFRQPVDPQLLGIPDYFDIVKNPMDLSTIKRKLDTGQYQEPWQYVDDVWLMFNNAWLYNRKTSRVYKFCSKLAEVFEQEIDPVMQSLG
Protocol: AlphaScreen In-Vitro Binding Assay for CREBBP
In order to assess bromodomain selectivity, we set up a binding assay using the bromodomain encoded by the CREBBP gene. […] Reactions were incubated at 30° C. for 35 minutes. Subsequently 4.5 μL per well detection mix (50 mM HEPES, pH 7.5, 0.005% Tween20, 0.02% BSA, 150 mM NaCl, 45 μg/ml Ni-chelate acceptor beads, 45 μg/mL streptavidin-donor beads) (Perkin Elmer)) were added. After 60 minutes incubation at room temperature, plates were measured in a Perkin Elmer EnVision multilabel reader. IC50 values were determined from percent inhibition values at different compound concentrations by non-linear regression analysis.
as §3, §4
These plates were used directly for the assay which was performed in a total volume of 13.55 μL.

His-Brd3(20-477) = His-Brd3(20-477) (Homo sapiens (Human), UniProt Q15059); experiment: TR-FRET in-vitro binding assay for BRD3
Chain of His-Brd3(20-477) (Q15059 20-477): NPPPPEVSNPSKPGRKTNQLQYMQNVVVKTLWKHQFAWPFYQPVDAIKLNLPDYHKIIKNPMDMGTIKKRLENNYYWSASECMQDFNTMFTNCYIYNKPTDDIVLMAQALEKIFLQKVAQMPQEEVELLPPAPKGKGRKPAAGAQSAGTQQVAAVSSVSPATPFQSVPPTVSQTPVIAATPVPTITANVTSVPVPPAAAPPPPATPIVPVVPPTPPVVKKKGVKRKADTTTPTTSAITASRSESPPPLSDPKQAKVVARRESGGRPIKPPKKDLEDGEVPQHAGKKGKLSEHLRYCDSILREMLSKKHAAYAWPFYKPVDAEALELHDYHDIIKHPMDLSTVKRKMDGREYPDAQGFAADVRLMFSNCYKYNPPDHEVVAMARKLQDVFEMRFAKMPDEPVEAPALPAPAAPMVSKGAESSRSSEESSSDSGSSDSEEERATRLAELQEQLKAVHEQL
Protocol: as §1, §2, §3, §4, §5, §6

Molecule `Cc1nn(C2CC2)c2c1C(c1ccc(Cl)cc1)N(c1cc(Cl)c(=O)n(C)c1)C2=O` (racemic) [Example 24, 5-(5-chloro-1-methyl-6-oxo-1,6-dihydropyridin-3-yl)-4-(4-chlorophenyl)-1-cyclopropyl-3-methyl-4,5-dihydropyrrolo[3,4-c]pyrazol-6(1H)-one] has a pIC50 (His-Brd4(44-477)) of 6.82, a pIC50 (His-Brd2(60-472)) of 6.64 and a pIC50 [1] of 5.23. For the same molecule, the pIC50 (His-Brd3(20-477)) was 6.82.
Work on `COCc1nn(C2CC2)c2c1C(c1ccc(Cl)cc1)N(c1cc(C)c(=O)n(C)c1)C2=O` (racemic) [Example 132, 4-(4-chlorophenyl)-1-cyclopropyl-5-(1,5-dimethyl-6-oxo-1,6-dihydropyridin-3-yl)-3-(methoxymethyl)-4,5-dihydropyrrolo[3,4-c]pyrazol-6(1H)-one] yielded a pIC50 (His-Brd4(44-477)) of 7.17, a pIC50 (His-Brd2(60-472)) of 7.09 and a pIC50 [1] of 5.32. It also gave a pIC50 (His-Brd3(20-477)) of 7.05.
`Cc1[nH]nc2c1C(c1ccc(Cl)cc1)N(c1cc(Cl)c(=O)n(C)c1)C2=O` (stereo not drawn) [Example 5, 5-(5-chloro-1-methyl-6-oxo-1,6-dihydropyridin-3-yl)-4-(4-chlorophenyl)-3-methyl-4,5-dihydropyrrolo[3,4-c]pyrazol-6(2H)-one] was tested, and the pIC50 (His-Brd4(44-477)) was 6.44, the pIC50 (His-Brd2(60-472)) was 6.14 and the pIC50 [1] was 5.25. The pIC50 (His-Brd3(20-477)) was 6.43.
Work on `Cc1c2c(nn1C)C(=O)N(c1cc(Cl)c(=O)n(C)c1)C2c1ccc(Cl)cc1` (stereo not drawn) [Example 6, 5-(5-chloro-1-methyl-6-oxo-1,6-dihydropyridin-3-yl)-4-(4-chlorophenyl)-2,3-dimethyl-4,5-dihydropyrrolo[3,4-c]pyrazol-6(2H)-one] yielded a pIC50 (His-Brd4(44-477)) of 6.72, a pIC50 (His-Brd2(60-472)) of 6.46 and a pIC50 [1] of 5.46. It also gave a pIC50 (His-Brd3(20-477)) of 6.74.
Work on `Cc1c2c(nn1C1CC1)C(=O)N(c1cc(Cl)c(=O)n(C)c1)C2c1ccc(Cl)cc1` (stereo not drawn) [Example 17, 5-(5-chloro-1-methyl-6-oxo-1,6-dihydropyridin-3-yl)-4-(4-chlorophenyl)-2-cyclopropyl-3-methyl-4,5-dihydropyrrolo[3,4-c]pyrazol-6(2H)-one] yielded a pIC50 (His-Brd4(44-477)) of 6.85, a pIC50 (His-Brd2(60-472)) of 6.74 and a pIC50 [1] of 5.89. It also gave a pIC50 (His-Brd3(20-477)) of 7.01.
`Cc1cc(N2C(=O)c3nn(C4CC4)c(C)c3C2c2ccc(Cl)cc2)cn(C)c1=O` (stereo not drawn) [Example 20, 4-(4-chlorophenyl)-2-cyclopropyl-5-(1,5-dimethyl-6-oxo-1,6-dihydropyridin-3-yl)-3-methyl-4,5-dihydropyrrolo[3,4-c]pyrazol-6(2H)-one] showed a pIC50 (His-Brd4(44-477)) of 7.06, a pIC50 (His-Brd2(60-472)) of 6.89 and a pIC50 [1] of 5.96. It also gave a pIC50 (His-Brd3(20-477)) of 7.11.
For `Cc1cc(N2C(=O)c3nn(C)c(C)c3C2c2ccc(Cl)cc2)cn(C)c1=O` (stereo not drawn) [Example 28, 4-(4-chlorophenyl)-5-(1,5-dimethyl-6-oxo-1,6-dihydropyridin-3-yl)-2,3-dimethyl-4,5-dihydropyrrolo[3,4-c]pyrazol-6(2H)-one], the pIC50 (His-Brd4(44-477)) was 6.85, the pIC50 (His-Brd2(60-472)) was 6.49 and the pIC50 [1] was 5.48. The pIC50 (His-Brd3(20-477)) was 6.80.
For `Cc1noc2ccc(N3C(=O)c4nn(C)c(C)c4C3c3ccc(Cl)cc3)cc12` (stereo not drawn) [Example 33, 4-(4-chlorophenyl)-2,3-dimethyl-5-(3-methylbenzo[d]isoxazol-5-yl)-4,5-dihydropyrrolo[3,4-c]pyrazol-6(2H)-one], the pIC50 (His-Brd4(44-477)) was 6.15, the pIC50 (His-Brd2(60-472)) was 5.92 and the pIC50 [1] was less than 4.43. It also gave a pIC50 (His-Brd3(20-477)) of 6.04.
For `Cn1cc(N2C(=O)c3nn(C4CC4)cc3C2c2ccc(Cl)cc2)cc(Cl)c1=O` (stereo not drawn) [Example 37, 5-(5-chloro-1-methyl-6-oxo-1,6-dihydropyridin-3-yl)-4-(4-chlorophenyl)-2-cyclopropyl-4,5-dihydropyrrolo[3,4-c]pyrazol-6(2H)-one], the pIC50 (His-Brd4(44-477)) was 6.77, the pIC50 (His-Brd2(60-472)) was 6.85 and the pIC50 [1] was 5.92. For the same molecule, the pIC50 (His-Brd3(20-477)) was 6.85.
`CC(C)n1ncc2c1C(=O)N(c1cc(Cl)c(=O)n(C)c1)C2c1ccc(Cl)cc1` (stereo not drawn) [Example 38, 5-(5-chloro-1-methyl-6-oxo-1,6-dihydropyridin-3-yl)-4-(4-chlorophenyl)-1-isopropyl-4,5-dihydropyrrolo[3,4-c]pyrazol-6(1H)-one] gave a pIC50 (His-Brd4(44-477)) of 7.21, a pIC50 (His-Brd2(60-472)) of 7.31 and a pIC50 [1] of 5.72. It also gave a pIC50 (His-Brd3(20-477)) of 7.12.
With `Cn1cc(N2C(=O)c3nn(C4CC4)c(C(F)(F)F)c3C2c2ccc(Cl)cc2)cc(Cl)c1=O` (stereo not drawn) [Example 40, 5-(5-chloro-1-methyl-6-oxo-1,6-dihydropyridin-3-yl)-4-(4-chlorophenyl)-2-cyclopropyl-3-(trifluoromethyl)-4,5-dihydropyrrolo[3,4-c]pyrazol-6(2H)-one] the pIC50 (His-Brd4(44-477)) was 6.66, the pIC50 (His-Brd2(60-472)) was 6.80 and the pIC50 [1] was 6.13. It also gave a pIC50 (His-Brd3(20-477)) of 6.82.
`Cc1cc(N2C(=O)c3nn(C(C)C)cc3C2c2ccc(Cl)cc2)cn(C)c1=O` (stereo not drawn) [Example 41, 4-(4-chlorophenyl)-5-(1,5-dimethyl-6-oxo-1,6-dihydropyridin-3-yl)-2-isopropyl-4,5-dihydropyrrolo[3,4-c]pyrazol-6(2H)-one] was tested, and the pIC50 (His-Brd4(44-477)) was 7.02, the pIC50 (His-Brd2(60-472)) was 7.12 and the pIC50 [1] was 6.42. It also gave a pIC50 (His-Brd3(20-477)) of 7.07.
Molecule `CC(C)n1cc2c(n1)C(=O)N(c1cc(Cl)c(=O)n(C)c1)C2c1ccc(Cl)cc1` (stereo not drawn) [Example 42, 5-(5-chloro-1-methyl-6-oxo-1,6-dihydropyridin-3-yl)-4-(4-chlorophenyl)-2-isopropyl-4,5-dihydropyrrolo[3,4-c]pyrazol-6(2H)-one] has a pIC50 (His-Brd4(44-477)) of 7.00, a pIC50 (His-Brd2(60-472)) of 7.04 and a pIC50 [1] of 6.35. It also gave a pIC50 (His-Brd3(20-477)) of 7.05.
`Cc1cc(N2C(=O)c3nn(C4CC4)c(C(F)(F)F)c3C2c2ccc(Cl)cc2)cn(C)c1=O` (stereo not drawn) [Example 43, 4-(4-chlorophenyl)-2-cyclopropyl-5-(1,5-dimethyl-6-oxo-1,6-dihydropyridin-3-yl)-3-(trifluoromethyl)-4,5-dihydropyrrolo[3,4-c]pyrazol-6(2H)-one] was tested, and the pIC50 (His-Brd4(44-477)) was 6.92, the pIC50 (His-Brd2(60-472)) was 7.00 and the pIC50 [1] was 6.18. It also gave a pIC50 (His-Brd3(20-477)) of 6.96.
For `Cc1nn(C2CC2)c2c1[C@H](c1ccc(Cl)cc1)N(c1cc(C)c(=O)n(C)c1)C2=O` [Example 48, (S)-4-(4-chlorophenyl)-1-cyclopropyl-5-(1,5-dimethyl-6-oxo-1,6-dihydropyridin-3-yl)-3-methyl-4,5-dihydropyrrolo[3,4-c]pyrazol-6(1H)-one], the pIC50 (His-Brd4(44-477)) was less than 5.17, the pIC50 (His-Brd2(60-472)) was less than 5.17 and the pIC50 [1] was less than 5.29. For the same molecule, the pIC50 (His-Brd3(20-477)) was less than 5.17.
`Cc1nn(C2CC2)c2c1C(c1ccc(Cl)cc1)N(c1cc(C)c3nnn(C)c3c1)C2=O` (stereo not drawn) [Example 85, 4-(4-chlorophenol)-1-cyclopropyl-5-(1,4-dimethyl-1H-benzo[d][1,2,3]triazol-6-yl)-3-methyl-4,5-dihydropyrrolo[3,4-c]pyrazol-6(1H)-one] showed a pIC50 (His-Brd4(44-477)) of 7.85, a pIC50 (His-Brd2(60-472)) of 7.62 and a pIC50 [1] of 5.08. The pIC50 (His-Brd3(20-477)) was 7.80.
For `Cc1nn(C2CC2)c2c1[C@@H](c1ccc(F)cc1F)N(c1cc(C)c3nnc(C)n3c1)C2=O` [Example 188, (S)-1-cyclopropyl-4-(2,4-difluorophenyl)-5-(3,8-dimethyl-[1,2,4]triazolo[4,3-a]pyridin-6-yl)-3-methyl-4,5-dihydropyrrolo[3,4-c]pyrazol-6(1H)-one], the pIC50 (His-Brd4(44-477)) was 7.51, the pIC50 (His-Brd2(60-472)) was 7.39 and the pIC50 [1] was 4.72. For the same molecule, the pIC50 (His-Brd3(20-477)) was 7.40.
With `Cc1nn(C2CC2)c2c1[C@@H](c1ccc(Cl)cc1F)N(c1cc(C)c3nnc(C)n3c1)C2=O` [Example 190, (S)-4-(4-chloro-2-fluorophenyl)-1-cyclopropyl-5-(3,8-dimethyl-[1,2,4]triazolo[4,3-a]pyridin-6-yl)-3-methyl-4,5-dihydropyrrolo[3,4-c]pyrazol-6(1H)-one] the pIC50 (His-Brd4(44-477)) was 7.66, the pIC50 (His-Brd2(60-472)) was 7.55 and the pIC50 [1] was 4.92. For the same molecule, the pIC50 (His-Brd3(20-477)) was 7.60.
